Assays:
Type in all cases: functional
HeLa = experiment: Cytotoxicity against Homo sapiens (human) HeLa cells assessed as cell viability after […] by MTT assay
Raji = experiment: Cytotoxicity against Homo sapiens (human) Raji cells assessed as cell viability after 72 hr by MTT assay
[1] = Cytotoxicity against Homo sapiens (human) LS180 cells assessed as cell viability after 72 hr by MTT assay; details: LS180, 72 h

| Structure (SMILES) | IC15 (HeLa) [µM] | IC30 (HeLa) [µM] | IC15 (Raji) [µM] | IC30 (Raji) [µM] | IC15 [1] [µM] | IC30 [1] [µM] |
| --- | --- | --- | --- | --- | --- | --- |
| O=C1Nc2ccccc2/C1=N/c1cccc2ccccc12 | 15.8 | 55.9 | 48.8 | > 100 | 20.8 | > 100 |
| O=C1Nc2ccccc2/C1=N/c1nc(Cl)cs1 | 3.2 | 35.9 | 57.3 | > 100 | > 100 | > 100 |
| O=C1Nc2ccccc2/C1=N/c1ccc(Cl)cn1 | 21.6 | 65.1 | > 100 | > 100 | > 100 | > 100 |
| Cc1conc1/N=C1\C(=O)Nc2ccccc21 | 49.6 | > 100 | 30.1 | > 100 | > 100 | > 100 |
| Cc1ccccc1N=C1C(=O)Nc2ccccc21 | 12.3 | 52.6 | 64.8 | > 100 | > 100 | > 100 |
| O=C1Nc2ccccc2/C1=N/c1nc2ccccc2[nH]1 | 43.2 | > 100 | 15.6 | > 100 | > 100 | > 100 |
| Cc1nc(Cl)cc(/N=C2\C(=O)Nc3ccccc32)n1 | 17.4 | > 100 | > 100 | > 100 | > 100 | > 100 |
| O=C1Nc2ccccc2/C1=N\c1ccc(Cl)cc1 | 15.4 | 80.2 | 35.4 | 88.1 | > 100 | > 100 |
| O=C1Nc2ccccc2/C1=N/Nc1ccc([N+](=O)[O-])cc1 | 3 | 12.2 | 17 | > 100 | 5.2 | 21.8 |
